Assays:
KCHSC = experiment: Example III: post-emergence foliar-applied weed control in cereal crops, greenhouse; type: in vivo, Kochia scoparia (L.) Schrad.; settings: 21 DAA
Protocol: (§1) Seeds of the desired test plant species were planted in Sun Gro MetroMix® 306 planting mixture, which typically has a pH of 6.0 to 6.8 and an organic matter content of about 30 percent, in plastic pots with a surface area of 103.2 square centimeters (cm^2). When required to ensure good germination and healthy plants, a fungicide treatment and/or other chemical or physical treatment was applied. The plants were grown for 7-36 days in a greenhouse with an approximate 14 hour photoperiod which was maintained at about 18° C. during the day and 17° C. during the night. Nutrients and water were added on a regular basis and supplemental lighting was provided with overhead metal halide 1000-Watt lamps as necessary. The plants were employed for testing when they reached the second or third true leaf stage.
(§2) Treatments consisted of the benzyl ester of 4-amino-3-chloro-5-fluoro-6-(4-chloro-2-fluoro-3-methoxy-phenyl)pyridine-2-carboxylic acid (Compound A), formulated as an SC (suspension concentrate), and a second cereal herbicide alone and in combination.
(§3) Measured aliquots of the benzyl ester of 4-amino-3-chloro-5-fluoro-6-(4-chloro-2-fluoro-3-methoxy-phenyl)pyridine-2-carboxylic acid (Compound A) were placed in 25 milliliter (mL) glass vials and diluted in a volume of 1.25% (v/v) Agri-dex crop oil concentrated to obtain stock solutions. Compound requirements are based upon a 12 mL application volume at a rate of 187 liters per hectare (L/ha). Spray solutions of the second cereal herbicide and experimental compound mixtures were prepared by adding the stock solutions to the appropriate amount of dilution solution to form 12 mL spray solution with active ingredients in two- and three-way combinations. Formulated compounds were applied to the plant material with an overhead Mandel track sprayer equipped with an 8002E nozzle calibrated to deliver 187 L/ha over an application area of 0.503 square meters (m^2) at a spray height of 18 inches (46 cm) above average plant canopy. Control plants were sprayed in the same manner with the solvent blank.
(§4) The treated plants and control plants were placed in a greenhouse as described above and watered by sub-irrigation to prevent wash-off of the test compounds. After 20-22 days, the condition of the test plants as compared with that of the control plants was determined visually and scored on a scale of 0 to 100 percent where 0 corresponds to no injury and 100 corresponds to complete kill.
(§5) Colby's equation was used to determine the herbicidal effects expected from the mixtures (Colby, S. R. 1967. Calculation of the synergistic and antagonistic response of herbicide combinations. Weeds 15:20-22.).

GALAP = experiment: as above; type: in vivo, Galium aparine L.; settings: 21 DAA
Protocol: as §1, §2, §3, §4, §5

STEME = experiment: as above; type: in vivo, Stellaria media (L.) Vill.; settings: 21 DAA
Protocol: as §1, §2, §3, §4, §5

SINAR = experiment: as above; type: in vivo, Sinapis arvensis L.; settings: 21 DAA
Protocol: as §1, §2, §3, §4, §5

CHEAL = experiment: as above; type: in vivo, Chenopodium album L.; settings: 21 DAA
Protocol: as §1, §2, §3, §4, §5

PAPRH = experiment: as above; type: in vivo, Papaver rhoeas L.; settings: 21 DAA
Protocol: as §1, §2, §3, §4, §5

SASKR = experiment: as above; type: in vivo, Salsola tragus L.; settings: 21 DAA
Protocol: as §1, §2, §3, §4, §5

ECHCO = experiment: Example I: postemergence foliar-applied weed control, greenhouse; type: in vivo, Echinochloa colona (L.) Link (junglerice); settings: 20 DAA
From the text: (§6) Seeds or nutlets of the desired test plant species were planted in a soil matrix prepared by mixing a loam or sandy loam soil (e.g., 28.6 percent silt, 18.8 percent clay, and 52.6 percent sand, with a pH of about 5.8 and an organic matter content of about 1.8 percent) and calcareous grit in an 80 to 20 ratio. The soil matrix was contained in plastic pots with a volume of 1 quart and a surface area of 83.6 square centimeters (cm^2). When required to ensure good germination and healthy plants, a fungicide treatment and/or other chemical or physical treatment was applied. The plants were grown for 8-22 days in a greenhouse with an approximate 14 hr photoperiod which was maintained at about 29° C. during the day and 26° C. during the night. Nutrients (Peters Excel® 15-5-15 5-Ca 2-Mg and iron chelate) were applied in the irrigation solution as needed and water was added on a regular basis. Supplemental lighting was provided with overhead metal halide 1000-Watt lamps as necessary. The plants were employed for testing when they reached the first through fourth true leaf stage.
(§7) Treatments consisted of the acid or esters of 4-amino-3-chloro-5-fluoro-6-(4-chloro-2-fluoro-3-methoxy-phenyl)pyridine-2-carboxylic acid (Compound A), each formulated as an SC (suspension concentrate), and various herbicidal components alone and in combination. Forms of compound A were applied on an acid equivalent basis.
(§8) Other herbicidal components were applied on an active ingredient basis and included very long chain fatty acid (VLCFA) synthesis-inhibiting and fatty acid/lipid synthesis-inhibiting herbicides acetochlor (technical grade material), acetochlor+dichlormid formulated as Topnotch®, pretilachlor (technical grade material), butachlor formulated as Butachlor EC, fentrazamide formulated as Fentrazamide EC, thiobencarb formulated as Bolero® 8EC, cafenstrole formulated as Himeadow® WP or Lapost® Flowable, benfuresate formulated as Full Shot®, dimethenamid-P formulated as Outlook®, indanofan (technical grade material), flufenacet formulated as Define® DF, mefenacet (technical grade material), S-metolachlor formulated as Dual® II Magnum, pethoxamid formulated as Successor® 600, and pyroxasulfone (technical grade material).
(§9) Treatment requirements were calculated based upon the rates being tested, the concentration of active ingredient or acid equivalent in the formulation, and a 12 mL application volume at a rate of 187 L/ha.
(§10) For treatments comprised of formulated compounds, measured amounts of compounds were placed individually in 25 mL glass vials and diluted in a volume of 1.25% (v/v) Agri-Dex® crop oil concentrated to obtain 12× stock solutions. […] Application solutions were prepared by adding an appropriate amount of each stock solution (e.g., 1 mL) and diluted to the appropriate final concentrations with the addition of 10 mL of an aqueous mixture of 1.25% (v/v) crop oil concentrate so that the final spray solutions contained 1.25+/−0.05% (v/v) crop oil concentrate.
(§11) For treatments comprised of technical compounds, weighed amounts can be placed individually in 25 mL glass vials and dissolved in a volume of 97:3 v/v acetone/DMSO to obtain 12× stock solutions. […] Application solutions can be prepared by adding an appropriate amount of each stock solution (e.g., 1 mL) and diluted to the appropriate final concentrations with the addition of 10 mL of an aqueous mixture of 1.5% (v/v) crop oil concentrate so that the final spray solutions contain 1.25% (v/v) crop oil concentrate. When technical materials are used, the concentrated stock solutions can be added to the spray solutions so that the final acetone and DMSO concentrations of the application solutions are […], respectively. […]

CYPIR = experiment: as above; type: in vivo, Cyperus iria L. (rice flatsedge); settings: 20 DAA
From the text: as §6, §7, §8, §9, §10, §11

ECHOR = experiment: Example II: in-water applied weed control, transplanted paddy rice, greenhouse; type: in vivo, Echinochloa oryzoides (Ard.) Fritsch (early watergrass)
Protocol: (§12) Weed seeds or nutlets of the desired test plant species were planted in puddled soil (mud) prepared by mixing a shredded, non-sterilized mineral soil (50.5 percent silt, 25.5 percent clay, and 24 percent sand, with a pH of about 7.6 and an organic matter content of about 2.9 percent) and water at a 1:1 volumetric ratio. The prepared mud was dispensed in 365 mL aliquots into 16-ounce (oz.) non-perforated plastic pots with a surface area of 86.59 square centimeters (cm^2) leaving a headspace of 3 centimeters (cm) in each pot. Mud was allowed to dry overnight prior to planting or transplanting. Rice seeds were planted in Sun Gro MetroMix® 306 planting mixture, which typically has a pH of 6.0 to 6.8 and an organic matter content of about 30 percent, in plastic plug trays. Seedlings at the second or third leaf stage of growth were transplanted into 840 mL of mud contained in 32-oz. non-perforated plastic pots with a surface area of 86.59 cm^2 4 days prior to herbicide application. The paddy was created by filling the headspace of the pots with 2.5 to 3 cm of water. When required to ensure good germination and healthy plants, a fungicide treatment and/or other chemical or physical treatment was applied. The plants were grown for 4-22 days in a greenhouse with an approximate 14 hr photoperiod which was maintained at about 29′C during the day and 26° C. during the night. Nutrients were added as Osmocote® (19:6:12, N:P:K+ minor nutrients) at 2 g per 16-oz. pot and 4 g per 32-oz. pot. Water was added on a regular basis to maintain the paddy flood, and supplemental lighting was provided with overhead metal halide 1000-Watt lamps as necessary. The plants were employed for testing when they reached the first through fourth true leaf stage.
as §7, with “(compound A)” for “(Compound A),”, “concentrate)” for “concentrate),”
(§13) The herbicidal components were applied on an active ingredient basis and included very long chain fatty acid (VLCFA) synthesis-inhibiting and fatty acid/lipid synthesis-inhibiting herbicides acetochlor (technical grade material), acetochlor+dichlormid formulateded as Topnotch®, pretilachlor (technical grade material), butachlor formulated as Butachlor EC, fentrazamide formulated as Fentrazamide EC, thiobencarb formulated as Bolero® 8EC, cafenstrole formulated as Himeadow® WP or Lapost® Flowable, benfuresate formulated as Full Shot®, anilofos (technical grade material), mefenacet (technical grade material), molinate (technical grade material), and thenylchlor (technical grade material).
(§14) Treatment requirements for each compound or herbicidal component were calculated based upon the rates being tested, the concentration of active ingredient or acid equivalent in the formulation, an application volume of 2 mL per component per pot, and an application area of 86.59 cm^2 per pot.
(§15) For formulated compounds, a measured amount was placed in an individual 100 or 200 mL glass vial and was dissolved in a volume of 1.25% (v/v) Agri-Dex® crop oil concentrate to obtain application solutions.
(§16) For technical grade compounds, a weighed amount was placed in an individual 100 to 200 mL glass vial and was dissolved in a volume of acetone to obtain concentrated stock solutions. […] The concentrated stock solutions obtained were diluted with an equivalent volume of an aqueous mixture containing 2.5% (v/v) crop oil concentrate so that the final application solutions contained 1.25% (v/v) crop oil concentrate.
(§17) Applications were made by injecting with a pipetter appropriate amounts of the application solutions, individually and sequentially, into the aqueous layer of the paddy. Control plants were treated in the same manner with the solvent blank. […]

ISCRU = experiment: Example I: postemergence foliar-applied weed control, greenhouse; type: in vivo, Ischaemum rugosum Salisb. (saramollagrass); settings: 21 DAA
From the text: as §6, §7, §8, §9
For treatments comprised of formulated compounds, measured amounts of compounds were placed individually in 25 mL glass vials and diluted in a volume of 1.25% (v/v) Agri-Dex® crop oil concentrated to obtain 12× stock solutions. […]

DIGSA = experiment: as above; type: in vivo, Digitaria sanguinalis (L.) Scop. (large crabgrass); settings: 20 DAA; 560 gai/ha
From the text: as §6, §7, §8, §9, §10, §11

CYPRO = experiment: Example II: in-water applied weed control, transplanted paddy rice, greenhouse; type: in vivo, Cyperus rotundus L. (purple nutsedge); settings: 20 DAA
Protocol: as §12
as §7, with “(compound A)” for “(Compound A),”, “concentrate)” for “concentrate),”
as §13, §14, §15, §16, §17

CCCN(CCC)C(=O)SCc1ccccc1 [Prosulfocarb, S-(phenylmethyl) dipropylcarbamothioate]
Visual Weed Control KCHSC Obs (KCHSC; 1000 gai/ha): 10%
Visual Weed Control KCHSC Obs (KCHSC; 2000 gai/ha): 15%
Visual Weed Control KCHSC Obs (KCHSC; 4000 gai/ha): 75%
Visual Weed Control GALAP Obs (GALAP; 1000 gai/ha): 15%
Visual Weed Control GALAP Obs (GALAP; 2000 gai/ha): 40%
Visual Weed Control GALAP Obs (GALAP; 4000 gai/ha): 67%
Visual Weed Control STEME Obs (STEME; 1000 gai/ha): 0%
Visual Weed Control STEME Obs (STEME; 2000 gai/ha): 10%
Visual Weed Control STEME Obs (STEME; 4000 gai/ha): 73%
Visual Weed Control SINAR Obs (SINAR; 1000 gai/ha): 13%
Visual Weed Control SINAR Obs (SINAR; 2000 gai/ha): 18%
Visual Weed Control CHEAL Obs (CHEAL; 1000 gai/ha): 10%
Visual Weed Control CHEAL Obs (CHEAL; 2000 gai/ha): 15%
Visual Weed Control PAPRH Obs (PAPRH; 1000 gai/ha): 5%
Visual Weed Control PAPRH Obs (PAPRH; 2000 gai/ha): 10%
Visual Weed Control PAPRH Obs (PAPRH; 4000 gai/ha): 13%
Visual Weed Control SASKR Obs (SASKR; 1000 gai/ha): 5%
Visual Weed Control SASKR Obs (SASKR; 2000 gai/ha): 5%
Visual Weed Control SASKR Obs (SASKR; 4000 gai/ha): 63%

CCN(CC)C(=O)SCc1ccc(Cl)cc1 [Thiobencarb, S-[(4-chlorophenyl)methyl]N,N-diethylcarbamothioate]
Visual Weed Control Obs (ECHCO; 560 gai/ha): 45%
Visual Weed Control Obs (ECHCO; 1120 gai/ha): 40%
Visual Weed Control Obs (CYPIR; 560 gai/ha): 0%
Visual Weed Control Obs (CYPIR; 1120 gai/ha): 0%
Visual Weed Control Obs (CYPIR; 2240 gai/ha): 0%
Visual Weed Control (%) - 20 DAA ECHOR Obs (ECHOR; 1120 gai/ha): 60%
pest or weed control at 1120 g/ha (ECHOR; Echinochloa oryzoides, 480 h, 1120 gai/ha, 20 DAA, read-out: Visual Weed Control ECHOR Obs): 60%
pest or weed control at 2240 g/ha (ECHOR; Echinochloa oryzoides, 480 h, 2240 gai/ha, 20 DAA, read-out: Visual Weed Control ECHOR Obs): 90%
Visual Weed Control Obs (ISCRU; 1120 gai/ha): 0%
Visual Weed Control Obs (ISCRU; 2240 gai/ha): 0%
Visual Weed Control Obs (DIGSA): 20%
Visual Weed Control CYPRO Obs (CYPRO; 1120 gai/ha): 0%
Visual Weed Control CYPRO Obs (CYPRO; 2240 gai/ha): 0%
